According to patent US7968556B2, “Heteroaryl compounds, compositions thereof, and methods of treatment therewith” (Signal Pharmaceuticals, LLC, priority 2006, dated 2011):

Columns and labels:
mTOR = mTOR (Homo sapiens, UniProt P42345); assay: mTOR HTR-FRET Assay; assay type: biochemical
Procedure, shortened: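 TOR enzyme fraction preincubated 30 min at room temperature with compound, then reaction started with GST-p70S6 kinase fragment substrate (97 nM working stock) plus ATP/Mn2+ and run 2 h at room temperature in Tris pH 7.4 buffer. Stopped with EDTA; phospho-substrate detected by HTRF antibody reagent after 5 h to overnight.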

| IC50 (mTOR) | melting point | SMILES |
| --- | --- | --- |
| 0.1 to 5 µM | 343 to 345 °C | NC(=O)c1nc(-c2cccnc2)nc2c1[nH]c(=O)n2[C@H]1CC[C@H](O)CC1 [Compound 50, 9-(trans-4-Hydroxycyclohexyl)-8-oxo-2-(pyridin-3-yl)-8,9-dihydro-7H-purine-6-carboxamide] |
| > 30 µM | 360 to 362 °C | COc1ccccc1-n1c(=O)[nH]c2c(C(N)=O)nc(-c3ccnc(O)c3)nc21 [Compound 13, 2-(2-hydroxypyridin-4-yl)-9-(2-methoxyphenyl)-8-oxo-8,9-dihydro-7H-purine-6-carboxamide] |
| 5.1 to 10 µM | 362 to 363 °C | COc1ccccc1-n1c(=O)[nH]c2c(C(N)=O)nc(-c3ccc(O)cc3)nc21 [Compound 8, 2-(4-hydroxyphenyl)-9-(2-methoxyphenyl)-8-oxo-8,9-dihydro-7H-purine-6-carboxamide] |
